The values that follow come from PubChem BioAssay AID602444 (National Center for Advancing Translational Sciences (NCATS), 2012).

The test system of this series is mouse liver microsomes without NADPH, percent remaining. The series is described as follows: High Content Assay for Compounds that inhibit the Assembly of the Perinucleolar Compartment: Mouse Liver Microsome Stability without NADPH. The settings on record: stronger effect = lower value. The text has this:
The perinucleolar compartment (PNC) is a non-membrane-bound nuclear subdomain that is associated with but structurally distinct from the nucleolus. The PNC is a heritable trait, in which the number of PNCs per cell in daughter cells often mimics that of their mother cells. The PNC is heterogeneous in shape, is stable through interphase, disassembles during mitosis, and reassembles in early G1. The PNC is concentrated with newly synthesized RNA polymerase III (pol III) RNAs (MRP RNA, RNAse P H1 RNA, hY RNAs[hY1, 2, 5], Alu RNA, and SRP [7SL] RNA) and RNA binding proteins (nucleolin, PTB, CUG-BP, KSRP, Raver1, Raver2, and Rod).
Extensive in vitro studies have shown that the PNC is unique to tumor cells and preferentially forms in tumor cells derived from solid tissues. Examination of cancer cell lines from various origins and malignant capacities has shown that PNC prevalence correlates with the malignancy of tumors and has the potential to be developed as a pan-cancer prognostic marker.
Mouse liver microsomes are generated from lysed mouse liver. Liver microsomes contain many drug metabolizing enzymes, including Cytochome P-450s and flavin-containing monooxygenases. Because drug metabolism is major way of drug clearance, this is an important result. […]
1uM of compound in incubated in mouse liver microsome; the reference compound is ketanserin. […] Samples are analyzed with LC-MS/MS.
On the technique in general: Microsomes from liver hold many membrane-bound enzymes, among them those of drug oxidation.

`N=c1c2c(-c3ccccc3)c(-c3ccccc3)n(Cc3ccccc3)c2ncn1C1CCC(O)CC1` (stereo unspecified): the percent remaining was 106%.
